Test results as given in the supplement of paper PMC11061612.

What was measured:
Assay in all cases: combination Emax (second highest fraction inhibited in the dose matrix, 72 h); higher = more inhibition; extreme values may be limits of the assay
[1] = test system: SW948 (Colorectal Carcinoma)
Summary of the method: (§1)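 After 24 hours at 37°C and 5% CO2 in 1536-well plates, cells in DMEM/F12 or RPMI plus 10% FBS received two-drug dose matrices for 72 hours. Viability came from CellTiter-Glo 2.0 luminescence and was scaled as inhibition, anchored at 0 by vehicle wells and at 1 by blank wells. Combination Emax is taken as the second-highest inhibition in the matrix, and Bliss excess as the observed combination effect less EA + EB − EA·EB, with EA and EB the single-agent effects.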

[2] = test system: HCT-116 (Colorectal Carcinoma)
Summary of the method: as §1

[3] = test system: HCC-827 (Lung Adenocarcinoma)
Summary of the method: as §1

[4] = test system: DOK (Oral Cavity Carcinoma)
Summary of the method: as §1

[5] = test system: KG-1 (Acute Myeloid Leukemia)
Summary of the method: as §1

[6] = test system: HCC1143 (Breast Carcinoma)
Summary of the method: as §1

[7] = test system: SK-UT-1 (Other Solid Carcinomas)
Summary of the method: as §1

[8] = test system: HLE (Hepatocellular Carcinoma)
Summary of the method: as §1

SK-MEL-1 (Melanoma) = test system: SK-MEL-1 (Melanoma)
Summary of the method: as §1

[9] = test system: MEG-01 (Chronic Myelogenous Leukemia)
Summary of the method: as §1

D-392MG (Glioblastoma) = test system: D-392MG (Glioblastoma)
Summary of the method: as §1

[10] = test system: D-283MED (Other Solid Carcinomas)
Summary of the method: as §1

Cc1c2c(nn1C)CSCc1cc(n(C)n1)CSc1cc(c3ccccc3c1)OCCCc1c(C(=O)O)n(C)c3c-2c(Cl)ccc13 [AZD5991] + CN(C)CCCOc1ccc(-c2ccc3ncc4c(c3c2)n(C2CCOCC2)c(=O)n4C)cn1 [AZD0156] (first compound max 1 µM, 7x7, partner max 1 µM)
combination Emax [1]: 0.296
combination Emax [2]: 0.265
combination Emax [3]: 0.345
combination Emax [4]: 0.331
combination Emax [5]: 1
combination Emax [6]: 0.364
combination Emax [7]: 0.245
combination Emax [8]: 0.39
combination Emax (SK-MEL-1 (Melanoma)): 0.261
combination Emax [9]: 0.432
combination Emax (D-392MG (Glioblastoma)): 0.252
combination Emax [10]: 0.36

Cc1c2c(nn1C)CSCc1cc(n(C)n1)CSc1cc(c3ccccc3c1)OCCCc1c(C(=O)O)n(C)c3c-2c(Cl)ccc13 [AZD5991] + CC1(C)CCC(CN2CCN(c3ccc(C(=O)NS(=O)(=O)c4ccc(NCC5CCOCC5)c([N+](=O)[O-])c4)c(Oc4cnc5[nH]ccc5c4)c3)CC2)=C(c2ccc(Cl)cc2)C1 [Venetoclax] (first compound max 1 µM, 7x7, partner max 1 µM)
combination Emax [1]: 0.236
combination Emax [2]: 0.163
combination Emax [3]: 0.182
combination Emax [4]: 0.758
combination Emax [5]: 1
combination Emax [6]: 0.252
combination Emax [7]: 0.138
combination Emax [8]: 0.287
combination Emax (SK-MEL-1 (Melanoma)): 0.22
combination Emax [9]: 0.837
combination Emax (D-392MG (Glioblastoma)): 0.791
combination Emax [10]: 0.639

C=CCn1c(=O)c2cnc(Nc3ccc(N4CCN(C)CC4)cc3)nc2n1-c1cccc(C(C)(C)O)n1 [AZD1775] + O=C(c1cc(Cc2n[nH]c(=O)c3ccccc23)ccc1F)N1CCN(C(=O)C2CC2)CC1 [Olaparib] (first compound max 1 µM, partner max 10 µM)
combination Emax [2]: 0.635
combination Emax [3]: 0.368
combination Emax [4]: 0.457
combination Emax [5]: 0.412
combination Emax [6]: 0.593
combination Emax [7]: 0.625
combination Emax [8]: 0.823
combination Emax (SK-MEL-1 (Melanoma)): 0.42
combination Emax [9]: 0.845
combination Emax (D-392MG (Glioblastoma)): 0.235
combination Emax [10]: 1

CN(CCO)CC[C@H](CSc1ccccc1)Nc1ccc(S(=O)(=O)NC(=O)c2ccc(N3CCC([C@@H](O)c4ccccc4-c4ccc(Cl)cc4)CC3)cc2)cc1S(=O)(=O)C(F)(F)F [AZD4320] + CCN(CCO)CCCOc1ccc2c(Nc3cc(CC(=O)Nc4cccc(F)c4)[nH]n3)ncnc2c1 [AZD2811] (first compound max 1 µM, 7x7, partner max 1 µM)
combination Emax [1]: 0.545
combination Emax [2]: 0.748
combination Emax [3]: 0.176
combination Emax [4]: 0.747
combination Emax [5]: 0.966
combination Emax [6]: 0.304
combination Emax [7]: 0.414
combination Emax [8]: 0.721
combination Emax (SK-MEL-1 (Melanoma)): 0.453
combination Emax [9]: 0.93
combination Emax (D-392MG (Glioblastoma)): 0.729
combination Emax [10]: 0.973

Cc1c2c(nn1C)CSCc1cc(n(C)n1)CSc1cc(c3ccccc3c1)OCCCc1c(C(=O)O)n(C)c3c-2c(Cl)ccc13 [AZD5991] + Cn1cnc2c(F)c(Nc3ccc(Br)cc3Cl)c(C(=O)NOCCO)cc21 [Selumetinib] (first compound max 1 µM, 7x7, partner max 3 µM)
combination Emax [1]: 0.69
combination Emax [2]: 0.523
combination Emax [3]: 0.201
combination Emax [4]: 0.903
combination Emax [5]: 1
combination Emax [6]: 0.383
combination Emax [7]: 0.164
combination Emax [8]: 0.326
combination Emax (SK-MEL-1 (Melanoma)): 0.912
combination Emax [9]: 0.872
combination Emax (D-392MG (Glioblastoma)): 0.364
combination Emax [10]: 0.237

CN(C)CCCOc1ccc(-c2ccc3ncc4c(c3c2)n(C2CCOCC2)c(=O)n4C)cn1 [AZD0156] + CCN(CCO)CCCOc1ccc2c(Nc3cc(CC(=O)Nc4cccc(F)c4)[nH]n3)ncnc2c1 [AZD2811] (first compound max 1 µM, 7x7, partner max 1 µM)
combination Emax [2]: 0.287
combination Emax [3]: 0.143
combination Emax [4]: 0.334
combination Emax [5]: 0.328
combination Emax [6]: 0.302
combination Emax [7]: 0.264
combination Emax [8]: 0.414
combination Emax (SK-MEL-1 (Melanoma)): 0.275
combination Emax [9]: 0.329
combination Emax (D-392MG (Glioblastoma)): 0.0413
combination Emax [10]: 0.769

CCN(CCO)CCCOc1ccc2c(Nc3cc(CC(=O)Nc4cccc(F)c4)[nH]n3)ncnc2c1 [AZD2811] + C=CCn1c(=O)c2cnc(Nc3ccc(N4CCN(C)CC4)cc3)nc2n1-c1cccc(C(C)(C)O)n1 [AZD1775] (first compound max 1 µM, partner max 1 µM)
combination Emax [2]: 0.547
combination Emax [3]: 0.392
combination Emax [4]: 0.463
combination Emax [5]: 0.436
combination Emax [6]: 0.623
combination Emax [7]: 0.765
combination Emax [8]: 0.935
combination Emax (SK-MEL-1 (Melanoma)): 0.353
combination Emax [9]: 0.863
combination Emax (D-392MG (Glioblastoma)): 0.168
combination Emax [10]: 1

CCN(CCO)CCCOc1ccc2c(Nc3cc(CC(=O)Nc4cccc(F)c4)[nH]n3)ncnc2c1 [AZD2811] + C[C@@H]1COCCN1C2=NC(=NC(=C2)C3(CC3)[S@](=N)(=O)C)C4=C5C=CNC5=NC=C4 [AZD6738] (first compound max 1 µM, 7x7, partner max 10 µM)
combination Emax [2]: 0.562
combination Emax [3]: 0.493
combination Emax [4]: 0.44
combination Emax [5]: 0.699
combination Emax [6]: 0.824
combination Emax [7]: 0.816
combination Emax [8]: 0.76
combination Emax (SK-MEL-1 (Melanoma)): 0.331
combination Emax [9]: 0.912
combination Emax (D-392MG (Glioblastoma)): 0.392
combination Emax [10]: 1

Cc1c2c(nn1C)CSCc1cc(n(C)n1)CSc1cc(c3ccccc3c1)OCCCc1c(C(=O)O)n(C)c3c-2c(Cl)ccc13 [AZD5991] + C[C@@H](Nc1cc(F)cc(F)c1)c1cc(C(=O)N(C)C)cc2c(=O)cc(N3CCOCC3)oc12 [AZD8186] (first compound max 1 µM, 7x7, partner max 3 µM)
combination Emax [1]: 0.345
combination Emax [2]: 0.248
combination Emax [3]: 0.288
combination Emax [4]: 0.459
combination Emax [5]: 1
combination Emax [6]: 0.342
combination Emax [7]: 0.188
combination Emax (SK-MEL-1 (Melanoma)): 0.153
combination Emax [9]: 0.416
combination Emax (D-392MG (Glioblastoma)): 0.301
combination Emax [10]: 0.342

CN(C)CCCOc1ccc(-c2ccc3ncc4c(c3c2)n(C2CCOCC2)c(=O)n4C)cn1 [AZD0156] + C[C@@H]1COCCN1C2=NC(=NC(=C2)C3(CC3)[S@](=N)(=O)C)C4=C5C=CNC5=NC=C4 [AZD6738] (first compound max 1 µM, 7x7, partner max 10 µM)
combination Emax [2]: 0.665
combination Emax [3]: 0.495
combination Emax [4]: 0.264
combination Emax [5]: 0.711
combination Emax [6]: 0.871
combination Emax [7]: 0.806
combination Emax [8]: 0.778
combination Emax (SK-MEL-1 (Melanoma)): 0.442
combination Emax [9]: 0.912
combination Emax (D-392MG (Glioblastoma)): 0.374
combination Emax [10]: 1

C[C@@H]1COCCN1c1cc(C2([S@](C)(=N)=O)CC2)nc(-c2ccnc3[nH]ccc23)n1 [AZD6738] + O=C(c1cc(Cc2n[nH]c(=O)c3ccccc23)ccc1F)N1CCN(C(=O)C2CC2)CC1 [Olaparib] (first compound max 10 µM, 7x7, partner max 10 µM)
combination Emax [2]: 0.78
combination Emax [3]: 0.498
combination Emax [4]: 0.369
combination Emax [5]: 0.739
combination Emax [6]: 0.701
combination Emax [7]: 0.821
combination Emax [8]: 0.981
combination Emax (SK-MEL-1 (Melanoma)): 0.312
combination Emax [9]: 0.908
combination Emax (D-392MG (Glioblastoma)): 0.38
combination Emax [10]: 1

CCN(CCO)CCCOc1ccc2c(Nc3cc(CC(=O)Nc4cccc(F)c4)[nH]n3)ncnc2c1 [AZD2811] + O=C(c1cc(Cc2n[nH]c(=O)c3ccccc23)ccc1F)N1CCN(C(=O)C2CC2)CC1 [Olaparib] (first compound max 1 µM, 7x7, partner max 10 µM)
combination Emax [2]: 0.452
combination Emax [3]: 0.236
combination Emax [4]: 0.375
combination Emax [5]: 0.37
combination Emax [6]: 0.372
combination Emax [7]: 0.289
combination Emax [8]: 0.409
combination Emax (SK-MEL-1 (Melanoma)): 0.289
combination Emax [9]: 0.564
combination Emax (D-392MG (Glioblastoma)): 0.174
combination Emax [10]: 0.817

Cc1cc2ncnn2cc1Nc1ncc2c(n1)n(C1CCOCC1)c(=O)n2C [AZD7648] + O=C(c1cc(Cc2n[nH]c(=O)c3ccccc23)ccc1F)N1CCN(C(=O)C2CC2)CC1 [Olaparib] (first compound max 10 µM, 7x7, partner max 10 µM)
combination Emax [2]: 0.234
combination Emax [3]: 0.199
combination Emax [4]: 0.152
combination Emax [5]: 0.131
combination Emax [6]: 0.148
combination Emax [7]: 0.158
combination Emax [8]: 0.252
combination Emax (SK-MEL-1 (Melanoma)): 0.24
combination Emax [9]: 0.22
combination Emax (D-392MG (Glioblastoma)): 0.144
combination Emax [10]: 0.639

CN(C)CCCOc1ccc(-c2ccc3ncc4c(c3c2)n(C2CCOCC2)c(=O)n4C)cn1 [AZD0156] + C=CCn1c(=O)c2cnc(Nc3ccc(N4CCN(C)CC4)cc3)nc2n1-c1cccc(C(C)(C)O)n1 [AZD1775] (first compound max 1 µM, partner max 1 µM)
combination Emax [2]: 0.494
combination Emax [3]: 0.456
combination Emax [4]: 0.375
combination Emax [5]: 0.357
combination Emax [6]: 0.6
combination Emax [7]: 0.635
combination Emax [8]: 0.747
combination Emax (SK-MEL-1 (Melanoma)): 0.442
combination Emax [9]: 0.883
combination Emax (D-392MG (Glioblastoma)): 0.18
combination Emax [10]: 0.996

CCc1c2c(nc3ccc(O)cc13)-c1cc3c(c(=O)n1C2)COC(=O)[C@]3(O)CC [SN-38] + O=C(c1cc(Cc2n[nH]c(=O)c3ccccc23)ccc1F)N1CCN(C(=O)C2CC2)CC1 [Olaparib] (first compound max 0.3 µM, 7x7, partner max 10 µM)
combination Emax [1]: 0.647
combination Emax [2]: 0.9
combination Emax [3]: 0.497
combination Emax [4]: 0.587
combination Emax [7]: 0.973
combination Emax [8]: 0.945
combination Emax (SK-MEL-1 (Melanoma)): 0.516
combination Emax [9]: 0.755
combination Emax (D-392MG (Glioblastoma)): 0.435
combination Emax [10]: 0.947

C=CCn1c(=O)c2cnc(Nc3ccc(N4CCN(C)CC4)cc3)nc2n1-c1cccc(C(C)(C)O)n1 [AZD1775] + C[C@@H]1COCCN1C2=NC(=NC(=C2)C3(CC3)[S@](=N)(=O)C)C4=C5C=CNC5=NC=C4 [AZD6738] (first compound max 1 µM, partner max 10 µM)
combination Emax [2]: 0.757
combination Emax [3]: 0.609
combination Emax [4]: 0.545
combination Emax [5]: 0.83
combination Emax [6]: 0.906
combination Emax [7]: 0.906
combination Emax [8]: 0.886
combination Emax (SK-MEL-1 (Melanoma)): 0.55
combination Emax [9]: 0.935
combination Emax (D-392MG (Glioblastoma)): 0.483
combination Emax [10]: 1
